Read-outs that look alike come from different tables or passages of the source.
What was measured:
HCoV-229E [1] = type: cell-based, human coronavirus 229E; conditions: Huh-7 cells, MOI 3
EBOV 5′ UTR VP40 = type: cell-based, Ebola virus
EBOV = conditions: cited from earlier work
PV [2] = experiment: microbe, parasite or virus in culture; type: cell-based, poliovirus type 1
[3] = ref Saradhi et al., 2011; cited from earlier work
HRV A1 [4] = experiment: microbe, parasite or virus in culture; type: cell-based, human rhinovirus A1; conditions: Rhinovirus A, MRC5, 24 h
[5] = test system: 5′ UTR of the classical swine fever virus (CSFV); type: cell-based
HRV A1 [6] = experiment: microbe, parasite or virus in culture; type: cell-based, human rhinovirus A1; conditions: Rhinovirus A, HeLa, 24 h
5′ UTR of HCoV-229E = type: cell-based, human coronavirus 229E
PV [7] = experiment: microbe, parasite or virus in culture; type: cell-based, poliovirus type 1; conditions: Enterovirus C, MRC5, 24 h
5′ UTR of PIM1 = type: cell-based
MERS-CoV = experiment: microbe, parasite or virus in culture; type: cell-based, Middle East Respiratory Syndrome coronavirus
Cell toxicity, MTT assay = conditions: human, PBMCs
[8] = test system: 5′ UTR of the ß-actin mRNA; type: cell-based
5′ UTR of MERS-CoV = type: cell-based, Middle East Respiratory Syndrome coronavirus
EBOV 5′ UTR L = type: cell-based, Ebola virus
HCoV-229E [9] = experiment: microbe, parasite or virus in culture; type: cell-based; conditions: Human coronavirus 229E, Huh-7, 24 h
HCoV-229E [10] = experiment: Immunofluorescence of viral dsRNA and nsp8 in HCoV-229E-infected MRC-5 cells; type: cell-based, human coronavirus 229E; conditions: MRC-5, MOI 3, 12 h p.i.
HCoV-229E [11] = experiment: microbe, parasite or virus in culture; type: cell-based; conditions: Human coronavirus 229E, PBMC
HCoV-229E [12] = type: cell-based, human coronavirus 229E; conditions: MRC-5 cells, 10 nM silvestrol, MOI 3, 12 h and 48 h p.i.
HCoV-229E [13] = experiment: microbe, parasite or virus in culture; type: cell-based; conditions: Human coronavirus 229E, MRC5, 24 h
[14] = Middle East respiratory syndrome-related coronavirus, MRC5, 24 h

COC(=O)[C@H]1[C@@H](O)[C@@]2(O)c3c(OC)cc(O[C@@H]4O[C@@H]([C@H](O)CO)CO[C@H]4OC)cc3O[C@@]2(c2ccc(OC)cc2)[C@@H]1c1ccccc1 [silvestrol]
N and nsp8 protein accumulation (Western blot) (HCoV-229E [1]; 100 nM silvestrol): essentially undetectable | N and nsp8 protein accumulation (Western blot) (HCoV-229E [1]; silvestrol up to 10 nM): unaffected | decrease of firefly luciferase activity (EBOV 5′ UTR VP40): 23% | EBOV titers (EBOV): strongly reduce EBOV titers | SI, selectivity indices (PV [2]): ≤ 1.6 | EC50 (PV [2]; Enterovirus C, Vero, 24 h): 100 nM | EC90 (PV [2]; Enterovirus C, Vero, 24 h): 900 nM | pharmacokinetics in terms of bioavailability and biostability [3]: favorable pharmacokinetics | EC50 (HRV A1 [4]): ~100 nM | EC90 (HRV A1 [4]): 900 nM | sensitivity towards silvestrol in the dual luciferase assay [5]: no sensitivity | EC50 (HRV A1 [6]): 400 nM | EC90 (HRV A1 [6]): 3600 nM | decrease of luciferase activity (5′ UTR of HCoV-229E): ~40% | EC50 (PV [7]): ~20 nM | EC90 (PV [7]): 180 nM | inhibition of firefly luciferase expression (5′ UTR of PIM1): ~40% | SI, selectivity index (MERS-CoV): >7690 | EC50 (MERS-CoV; [14]): 1.3 nM | EC90 (MERS-CoV; [14]): 12 nM | CC50 at 24 h (Cell toxicity, MTT assay): > 1000 nM | inhibition of firefly luciferase expression [8]: not more than 10% | decrease of luciferase activity (5′ UTR of MERS-CoV): ~40% | decrease of firefly luciferase activity (EBOV 5′ UTR L): 33% | EC50 (HCoV-229E [9]): 40 nM | EC90 (HCoV-229E [9]): 360 nM | viral dsRNA and nsp8 protein (immunofluorescence) (HCoV-229E [10]; 10 nM silvestrol): significant decrease | viral dsRNA and nsp8 protein (immunofluorescence) (HCoV-229E [10]; 100 nM silvestrol): nearly no viral dsRNA and nsp8 could be detected | EC50 (HCoV-229E [11]): 3.5 nM | EC50 (HCoV-229E [11]; 24 h): 2.8 nM | EC90 (HCoV-229E [11]; 24 h): 25 nM | N and nsp8 protein accumulation (Western blot) (HCoV-229E [12]): very low amounts | EC50 (HCoV-229E [13]): 3 nM | EC90 (HCoV-229E [13]): 27 nM
